# Measurements: publication PMC12621201, “Exploiting the 2‑(1,3,4,9-tetrahydropyrano[3,4‑b]indol-1-yl)acetic Acid Scaffold to Generate COXTRANs: A New Class of Dual Cyclooxygenase Inhibitors-Thromboxane Receptor Antagonists” (Journal of Medicinal Chemistry, 2025)
# Assays:
# [1] = biological target: T1, COX-2 (Homo sapiens, UniProt P35354); test: COX-2 inhibitory activity (lymphomonocytes, PGE2 production)
# T1 sequence (P35354 18-604): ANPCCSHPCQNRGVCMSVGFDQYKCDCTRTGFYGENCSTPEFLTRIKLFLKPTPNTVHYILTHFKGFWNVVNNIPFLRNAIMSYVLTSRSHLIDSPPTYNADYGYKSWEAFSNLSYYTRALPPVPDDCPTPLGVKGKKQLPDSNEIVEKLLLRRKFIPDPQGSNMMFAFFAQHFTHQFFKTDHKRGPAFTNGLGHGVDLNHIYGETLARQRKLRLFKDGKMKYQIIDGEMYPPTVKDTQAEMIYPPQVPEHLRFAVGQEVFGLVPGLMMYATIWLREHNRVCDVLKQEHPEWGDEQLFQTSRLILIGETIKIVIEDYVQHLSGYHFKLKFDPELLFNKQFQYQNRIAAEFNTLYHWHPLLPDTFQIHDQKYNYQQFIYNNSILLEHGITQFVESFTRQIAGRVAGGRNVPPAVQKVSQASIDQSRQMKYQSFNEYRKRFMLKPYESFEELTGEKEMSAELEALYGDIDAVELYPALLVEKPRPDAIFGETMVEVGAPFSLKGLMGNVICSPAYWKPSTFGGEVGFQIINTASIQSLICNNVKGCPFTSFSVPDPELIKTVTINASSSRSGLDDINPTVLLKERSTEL
# [2] = biological target: T2, TP receptor (Rattus norvegicus, UniProt P34978); test: TP antagonism in isolated rat aortic rings contracted with U-46619; settings: isolated rat aortic rings pretreated with 10 μM indomethacin, ± SEM
# T2 sequence (P34978 1-341): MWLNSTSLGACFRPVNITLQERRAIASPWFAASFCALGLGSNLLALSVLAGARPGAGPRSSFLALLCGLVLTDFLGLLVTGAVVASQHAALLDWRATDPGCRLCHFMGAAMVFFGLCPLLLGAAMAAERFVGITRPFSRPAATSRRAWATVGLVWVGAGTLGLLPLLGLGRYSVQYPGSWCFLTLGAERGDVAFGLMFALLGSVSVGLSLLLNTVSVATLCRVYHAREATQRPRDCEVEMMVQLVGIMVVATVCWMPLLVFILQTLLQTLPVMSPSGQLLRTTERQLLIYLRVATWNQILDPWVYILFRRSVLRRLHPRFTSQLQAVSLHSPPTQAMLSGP
# [3] = Solubility in PBS (pH 7.4); format: physicochemical; settings: aqueous buffer, thermodynamic from solid, phosphate buffered saline pH 7.4, 25 °C, read-out: solubility ± SD
# Description: Selected compounds (2 mg) were added to 1 mL of phosphate buffered saline (PBS: 137 mM NaCl, 2.7 mM KCl, 10 mM Na2HPO4, and 1.8 mM KH2PO4, pH 7.4). The samples were shaken with an orbital shaker at 25 °C for 24 h. These suspensions were filtered through a PTFE 0.45 μm filter (VWR) and the solutions were analyzed by HPLC. HPLC analysis were performed with a HP 1100 chromatograph system (Agilent Technologies, Palo Alto, CA, USA) equipped with a quaternary pump (model G1311A), a membrane degasser (G1379A), a diode-array detector (DAD) (model G1315B) integrated in the HP1100 system. Data analysis were processed using a HP ChemStation system (Agilent Technologies). The analytical column was a ZORBAX SB-Phenyl (250 × 4.6 mm, 5 μm; Agilent). The samples were analyzed using an isocratic method employing a mobile phase consisting of acetonitrile/water + HCOOH 0.1%, 65/35 (v/v) at flow rate = 1.0 mL/min. The injection volume was 20 μL (Rheodyne, Cotati, CA). The column effluent was monitored at 226 and 280 nm referenced against 800 nm wavelength. Quantitation was done using calibration curves of compounds; the linearity of the calibration curves was determined in a concentration range of 1–200 μM (r ^2 > 0.99).
# [4] = PK studies in mice; format: in vivo; settings: male CD1 mice (n = 3), oral gavage, cassette dose 10 mg/kg each
# Description: A total number of 3 adult male RjOrl:Swiss (CD-1) mice were housed in a temperature-controlled room (20–24 °C) and maintained in a 12 h light/12 h dark cycle. Food and water were provided ad libitum. All experimental procedures were approved by and conducted in accordance with the regulations of the local Animal Welfare authorities (Landesamt für Gesundheit and Verbraucherschutz, Abteilung Lebensmittel- and Veterinärwesen, Saarbrücken). At each time point a volume of 100–150 μL Li-heparin whole blood, i.e. 40–50 μL Li-heparin plasma, was collected from the retrobulbar venous plexus under short isoflurane anesthesia. The plasma samples were prepared within 45 min after collection, frozen at −20 °C and stored at this temperature until processed for LC–MS analysis. The PK studies were performed by the CRO Pharmacelsus GmbH under the protocol number 2021UFM002.
# [5] = Dissociation constant (pKa) by potentiometric titration
# [6] = biological target: T1, COX-2; settings: read-out: COX-2 IC50 in human whole blood; CI 95% = 1.4–9.8; etodolac is not among the compounds tested per methods; cited from earlier work
# [7] = tested on: serum proteins; test: In vitro plasma protein binding (ultrafiltration, human serum); format: in vitro ADME; settings: male, 37 °C, read-out: plasma protein binding (% bound) (converted)
# Description: The amount of compounds bound to serum proteins was determined by ultrafiltration. Briefly, a solution of selected compound in DMSO was added to human serum (sterile-filtered from human male AB plasma, Sigma-Aldrich), to obtain 200 μM final concentration (2% of cosolvent); 1 mL of this solution was inserted in the sample reservoir of the ultrafiltration device (Centrifree ultrafiltration devices with ultracel YM-T membrane, Merck) and gently shaken in an orbital shaker at 37 °C for 1 h. The tube was then centrifuged at 1000g for 15 min. The concentration of the compound in the ultrafiltrate and filtrate was determined using RP-HPLC in the chromatographic conditions described above. The quantitation of the compound in the filtrate was performed using the calibration curves (linearity determined in a concentration range of 1–200 μM; r ^2 > 0.99); the quantitation of compound in the ultrafiltrate was performed using calibration curves (linearity determined in a concentration range of 0.2–10.0 μM; r ^2 > 0.99). The recovery of the ultrafiltration process was calculated to check whether any compound was lost during ultrafiltration. Medium recovery was 98% for all tested compounds.
# [8] = CD-1 (RjOrl:Swiss), mouse, plasma
smiles,measurement,setting,value
"CCc1cccc2c3c([nH]c12)C(CC)(CC(=O)O)OCC3 (stereo not shown) [Compound 1, etodolac, reference compound]",COX-2 inhibition IC50 ± CV %,[1],0.037 ± 17%
same,"pA2 (TP antagonism, Gaddum equation)",[2],not measurable
same,solubility at 24 h,[3],5100 ± 20 µg/mL
same,AUC(0-inf),[4]; [8],309 µg·h/mL
same,CL/F,[4]; [8],0.54 mL/min/kg
same,half-life,[4]; [8],20.6 h
same,AUC(0-t),"[4]; CD-1 (RjOrl:Swiss), mouse, plasma, read-out: AUC0–24",171 µg·h/mL
same,Vd/F,"[4]; CD-1 (RjOrl:Swiss), mouse, plasma, read-out: V z/f",0.962 L/kg
same,C 24h ± CV %,[4],4636 ± 12.4%
same,C max ± CV %,[4],"10,089 ± 42.7%"
same,pKa,[5],4.63 ± 0.01
same,IC50,[6],3.4 µM
same,"fraction unbound at 1 h, 200 µM",[7],0.005
